Columns and labels:
Assay type in all cases: biochemical
ROCK1 [1] = target: T1, ROCK1 (Homo sapiens, UniProt Q13464); assay: In vitro Rho kinase inhibitory activity assay, ADP-Glo, Method A (ATP 10 μM); conditions: read-out: Method A ROCK 1 (Ki)
Method: (§1) In Vitro Inhibitory Activity Assay Description (Method A)
(§2) The effectiveness of compounds of the present invention to inhibit Rho kinase activity can be determined in a 10 μL assay containing 40 mM Tris pH7.5, 20 mM MgCl2 0.1 mg/mL BSA, 50 μM DTT and 2.5 μM peptide substrate (Myelin Basic Protein) using an ADP-Glo kit (Promega). Compounds were dissolved in DMSO such that the final concentration of DMSO was 1% in the assay. All reactions/incubations are performed at 25° C. Compound (2 μL) and either Rho kinase 1 or 2 (4 μL) were mixed and incubated for 30 min. Reactions were initiated by addition of ATP (4 μL) such that the final concentration of ATP in the assay was 10 μM. After a 1 hour incubation 10 μL of ADP-Glo Reagent was added and after a further 45 minute incubation 20 μL of Kinase Detection Buffer was added and the mixture incubated for a further 30 minutes. The luminescent signal was measured on a luminometer. […] Compounds were tested in dose-response format and the inhibition of kinase activity was calculated at each concentration of compound. To determine the IC50 (concentration of compound required to inhibit 50% of the enzyme activity) data were fit to a plot of % inhibition vs Log10 compound concentration using a sigmoidal fit with a variable slope and fixing the maximum to 100% and the minimum to 0%. To determine the Ki values the Cheng-Prusoff equation was utilized (Ki=IC50/(1+[S]/Km).

ROCK2 [2] = target: T2, ROCK2 (Homo sapiens, UniProt O75116); assay: as above; conditions: read-out: Method A ROCK 2 (Ki)
Method: as §1, §2

PKA = PKA (Homo sapiens, UniProt P17612); assay: In vitro inhibitory activity assay for PKA, ADP-Glo, reported as selectivity ratio vs ROCK2; conditions: Ki for PKA divided by Ki of ROCK2 (Method B)
Method: In Vitro Inhibitory Activity Assay Description for PKA
The effectiveness of compounds of the present invention to inhibit PKA activity can be determined in a 10 μL assay containing 40 mM Tris pH7.5, 20 mM MgCl2 0.1 mg/mL BSA, 50 μM DTT and 260 μM peptide substrate (kemptide) using an ADP-Glo kit (Promega). Compounds were dissolved in DMSO such that the final concentration of DMSO was 1% in the assay. All reactions/incubations are performed at 25° C. Compound and PKA enzyme (6 μL) were mixed and incubated for 30 min. Reactions were initiated by addition of ATP (4 μL) such that the final concentration of ATP in the assay was 10 μM. After a 30 minute incubation 10 μL of ADP-Glo Reagent was added and after a further 1 hour incubation 20 μL of Kinase Detection Buffer was added and the mixture incubated for a further 45 minutes. The luminescent signal was measured on a luminometer. […] Compounds were tested in dose-response format and the inhibition of kinase activity was calculated at each concentration of compound. To determine the IC50 (concentration of compound required to inhibit 50% of the enzyme activity) data were fit to a plot of % inhibition vs Log10 compound concentration using a sigmoidal fit with a variable slope and fixing the maximum to 100% and the minimum to 0%. To determine the Ki values the Cheng-Prusoff equation was utilized (Ki=IC50/(1+[S]/Km).
In vitro inhibitory activities for PKA were reported as selectivity ratio vs. ROCK2. Selectivity ratio PKA/ROCK2 was calculated by dividing the Ki value for PKA by Ki value of ROCK2 (Method B) and reported into table 1.

ROCK1 [3] = target: T1, ROCK1; assay: In vitro Rho kinase inhibitory activity assay, ADP-Glo, Method B (ATP 200 μM); conditions: read-out: Method B ROCK 1 (Ki)
Method: (§3) In Vitro Inhibitory Activity Assay Description (Method B)
as §2, with “(2 ul)” for “(2 μL)”, “was 200” for “was 10”, “20 ul” for “20 μL”, “vs Log 10” for “vs Log10”

ROCK2 [4] = target: T2, ROCK2; assay: as above; conditions: read-out: Method B ROCK 2 (Ki)
Method: as §3
as §2, with “(2 ul)” for “(2 μL)”, “was 200” for “was 10”, “20 ul” for “20 μL”, “vs Log 10” for “vs Log10”

T2 sequence (O75116 whole entry): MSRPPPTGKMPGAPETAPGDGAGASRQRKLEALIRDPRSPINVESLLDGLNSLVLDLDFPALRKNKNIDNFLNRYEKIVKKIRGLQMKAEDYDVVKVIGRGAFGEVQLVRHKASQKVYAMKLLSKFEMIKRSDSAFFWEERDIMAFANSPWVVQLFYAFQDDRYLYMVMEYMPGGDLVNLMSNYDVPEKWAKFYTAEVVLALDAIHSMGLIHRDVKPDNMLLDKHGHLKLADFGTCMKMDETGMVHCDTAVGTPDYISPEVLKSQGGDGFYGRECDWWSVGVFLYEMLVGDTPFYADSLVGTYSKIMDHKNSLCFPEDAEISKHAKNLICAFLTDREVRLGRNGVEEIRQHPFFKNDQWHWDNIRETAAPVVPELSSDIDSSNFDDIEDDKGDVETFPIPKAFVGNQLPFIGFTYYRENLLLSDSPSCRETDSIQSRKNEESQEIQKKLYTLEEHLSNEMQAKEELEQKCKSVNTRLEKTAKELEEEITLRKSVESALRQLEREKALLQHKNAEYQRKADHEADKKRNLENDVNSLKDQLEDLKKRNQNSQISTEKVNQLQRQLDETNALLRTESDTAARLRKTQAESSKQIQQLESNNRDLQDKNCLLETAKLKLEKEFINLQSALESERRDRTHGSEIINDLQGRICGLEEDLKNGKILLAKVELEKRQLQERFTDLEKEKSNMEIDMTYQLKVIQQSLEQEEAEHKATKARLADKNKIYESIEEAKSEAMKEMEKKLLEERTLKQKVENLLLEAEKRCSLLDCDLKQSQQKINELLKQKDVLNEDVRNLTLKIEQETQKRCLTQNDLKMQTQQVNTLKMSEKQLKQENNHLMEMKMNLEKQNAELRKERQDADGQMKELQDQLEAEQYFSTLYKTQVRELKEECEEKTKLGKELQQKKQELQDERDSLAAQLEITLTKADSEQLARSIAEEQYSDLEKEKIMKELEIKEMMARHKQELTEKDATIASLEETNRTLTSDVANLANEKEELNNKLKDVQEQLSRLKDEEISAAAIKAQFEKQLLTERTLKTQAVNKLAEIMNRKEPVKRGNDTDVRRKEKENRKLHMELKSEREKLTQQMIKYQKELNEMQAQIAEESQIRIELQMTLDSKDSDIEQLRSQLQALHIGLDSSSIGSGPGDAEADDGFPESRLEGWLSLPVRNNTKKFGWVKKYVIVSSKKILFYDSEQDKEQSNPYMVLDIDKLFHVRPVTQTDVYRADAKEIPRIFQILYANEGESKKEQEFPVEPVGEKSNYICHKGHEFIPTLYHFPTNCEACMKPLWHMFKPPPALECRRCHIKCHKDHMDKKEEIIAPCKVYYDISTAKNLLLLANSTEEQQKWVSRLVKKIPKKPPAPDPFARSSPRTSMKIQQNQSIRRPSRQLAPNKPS
T1 sequence (Q13464 whole entry): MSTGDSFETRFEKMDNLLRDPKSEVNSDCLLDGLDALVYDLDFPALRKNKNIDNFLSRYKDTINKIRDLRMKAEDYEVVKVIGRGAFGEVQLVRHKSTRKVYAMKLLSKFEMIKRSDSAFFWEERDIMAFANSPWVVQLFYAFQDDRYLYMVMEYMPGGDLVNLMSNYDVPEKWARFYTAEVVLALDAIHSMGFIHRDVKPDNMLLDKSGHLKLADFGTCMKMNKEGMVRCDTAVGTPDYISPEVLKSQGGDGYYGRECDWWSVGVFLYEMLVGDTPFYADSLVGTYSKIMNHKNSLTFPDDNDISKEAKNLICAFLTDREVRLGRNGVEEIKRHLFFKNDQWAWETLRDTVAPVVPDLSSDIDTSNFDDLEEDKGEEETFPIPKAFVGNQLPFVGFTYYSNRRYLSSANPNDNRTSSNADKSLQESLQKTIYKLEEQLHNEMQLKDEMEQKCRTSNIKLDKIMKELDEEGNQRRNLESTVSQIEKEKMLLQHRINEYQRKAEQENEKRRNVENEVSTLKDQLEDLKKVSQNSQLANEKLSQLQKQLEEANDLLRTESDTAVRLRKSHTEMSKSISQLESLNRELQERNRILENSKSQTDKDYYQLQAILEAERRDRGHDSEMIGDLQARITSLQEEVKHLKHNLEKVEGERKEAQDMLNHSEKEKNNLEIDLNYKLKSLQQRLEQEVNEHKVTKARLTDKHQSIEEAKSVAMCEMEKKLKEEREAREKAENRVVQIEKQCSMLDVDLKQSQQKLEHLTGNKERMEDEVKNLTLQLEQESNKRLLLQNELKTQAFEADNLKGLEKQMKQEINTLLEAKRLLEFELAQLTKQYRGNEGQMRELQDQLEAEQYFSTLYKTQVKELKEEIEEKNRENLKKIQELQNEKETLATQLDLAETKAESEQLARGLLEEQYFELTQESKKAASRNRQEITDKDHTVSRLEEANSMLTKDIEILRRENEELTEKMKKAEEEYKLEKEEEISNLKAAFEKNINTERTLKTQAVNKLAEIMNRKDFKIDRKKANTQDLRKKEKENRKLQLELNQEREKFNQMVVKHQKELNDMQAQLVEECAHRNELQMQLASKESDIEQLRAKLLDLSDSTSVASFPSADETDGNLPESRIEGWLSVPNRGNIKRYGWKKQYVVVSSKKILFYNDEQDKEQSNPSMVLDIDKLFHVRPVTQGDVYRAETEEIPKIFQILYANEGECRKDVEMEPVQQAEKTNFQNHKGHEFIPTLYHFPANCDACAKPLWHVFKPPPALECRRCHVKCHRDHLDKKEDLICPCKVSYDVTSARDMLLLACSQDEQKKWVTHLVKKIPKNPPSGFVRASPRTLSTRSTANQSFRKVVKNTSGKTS

Compound | Ki (ROCK1 [1]) | Ki (ROCK2 [2]) | Ratio (PKA/ROCK2) (PKA) | Ki (ROCK1 [3]) | Ki (ROCK2 [4])
CN(C)Cc1nc(C(=O)Nc2cccc(CNc3ncc(-c4ccncc4)c4c3CCO4)c2)cs1 [Example 53, 2-((dimethylamino)methyl)-N-(3-(((7-(pyridin-4-yl)-2,3-dihydrofuro[3,2-c]pyridin-4-yl)amino)methyl)phenyl)thiazole-4-carboxamide] | 3 to 30 nM | 3 to 30 nM |  |  | 
CN(C)CCn1ccc2cc(C(=O)Nc3cccc(CNc4ncc(-c5ccncc5)c5c4CCO5)c3)ccc21 [Example 39, 1-(2-(dimethylamino)ethyl)-N-(3-(((7-(pyridin-4-yl)-2,3-dihydrofuro[3,2-c]pyridin-4-yl)amino)methyl)phenyl)-1H-indole-5-carboxamide] | ≤ 3 nM | ≤ 3 nM |  |  | 
CN1CCc2nc(C(=O)Nc3cccc(CNc4ncc(-c5ccncc5)c5c4CCO5)c3)sc2C1 [Example 34, 5-methyl-N-(3-(((7-(pyridin-4-yl)-2,3-dihydrofuro[3,2-c]pyridin-4-yl)amino)methyl)phenyl)-4,5,6,7-tetrahydrothiazolo[5,4-c]pyridine-2-carboxamide] | ≤ 3 nM | ≤ 3 nM |  |  | 
Cc1cnccc1-c1cnc(NCc2cccc(C(=O)Nc3nc4c(s3)CN(C)CC4)c2)c2c1OCC2 [Example 48, N-(5-methyl-4,5,6,7-tetrahydrothiazolo[5,4-c]pyridin-2-yl)-3-(((7-(3-methylpyridin-4-yl)-2,3-dihydrofuro[3,2-c]pyridin-4-yl)amino)methyl)benzamide] | ≤ 3 nM | ≤ 3 nM |  |  | 
O=C(Nc1cccc(CNc2ncc(-c3ccncc3)c3c2CCO3)c1)c1ccc2c(c1)CCNC2 [Example 40, N-(3-(((7-(pyridin-4-yl)-2,3-dihydrofuro[3,2-c]pyridin-4-yl)amino)methyl)phenyl)-1,2,3,4-tetrahydroisoquinoline-6-carboxamide] | ≤ 3 nM | ≤ 3 nM |  |  | 
CN1CCc2nc(NC(=O)c3cccc(CNc4ncc(-c5ccnc(N)c5)c5c4CCO5)c3)sc2C1 [Example 49, 3-(((7-(2-aminopyridin-4-yl)-2,3-dihydrofuro[3,2-c]pyridin-4-yl)amino)methyl)-N-(5-methyl-4,5,6,7-tetrahydrothiazolo[5,4-c]pyridin-2-yl)benzamide] | ≤ 3 nM | ≤ 3 nM |  |  | 
CC(=O)Nc1cccc(CNc2ncc(-c3ccncc3)c3c2CC(C)O3)c1 (stereo not drawn) [Example 55, N-(3-(((2-methyl-7-(pyridin-4-yl)-2,3-dihydrofuro[3,2-c]pyridin-4-yl)amino)methyl)phenyl)acetamide] | 3 to 30 nM | 3 to 30 nM |  |  | 
Cn1ncc2cc(C(=O)Nc3cccc(CNc4ncc(-c5ccncc5)c5c4CCO5)c3)ccc21 [Example 37, 1-methyl-N-(3-(((7-(pyridin-4-yl)-2,3-dihydrofuro[3,2-c]pyridin-4-yl)amino)methyl)phenyl)-1H-indazole-5-carboxamide] | ≤ 3 nM | ≤ 3 nM |  |  | 
O=C(Nc1cccc(CNc2ncc(-c3ccncc3)c3c2CCO3)c1)c1nc2c(s1)CN(C1COC1)CC2 [Example 38, 5-(oxetan-3-yl)-N-(3-(((7-(pyridin-4-yl)-2,3-dihydrofuro[3,2-c]pyridin-4-yl)amino)methyl)phenyl)-4,5,6,7-tetrahydrothiazolo[5,4-c]pyridine-2-carboxamide] | ≤ 3 nM | ≤ 3 nM |  |  | 
CN(C)Cc1cccc(NC(=O)c2cccc(CNc3ncc(-c4ccncc4)c4c3CCO4)c2)c1 [Example 26, N-(3-((dimethylamino)methyl)phenyl)-3-(((7-(pyridin-4-yl)-2,3-dihydrofuro[3,2-c]pyridin-4-yl)amino)methyl)benzamide] | ≤ 3 nM | ≤ 3 nM |  |  | 
O=C(NCCc1ccncc1)c1cccc(CNc2ncc(-c3ccncc3)c3c2CCO3)c1 [Example 25, 3-(((7-(Pyridin-4-yl)-2,3-dihydrofuro[3,2-c]pyridin-4-yl)amino)methyl)-N-(2-(pyridin-4-yl)ethyl)benzamide] | ≤ 3 nM | ≤ 3 nM |  |  | 
CN1CCc2nc(NC(=O)c3cccc(CNc4ncc(-c5ccnc(F)c5)c5c4CCO5)c3)sc2C1 [Example 50, 3-(((7-(2-fluoropyridin-4-yl)-2,3-dihydrofuro[3,2-c]pyridin-4-yl)amino)methyl)-N-(5-methyl-4,5,6,7-tetrahydrothiazolo[5,4-c]pyridin-2-yl)benzamide] | ≤ 3 nM | ≤ 3 nM |  |  | 
CN(C)CCOc1ccc(NC(=O)c2cccc(CNc3ncc(-c4ccncc4)c4c3CCO4)c2)nc1 [Example 56, N-(5-(2-(dimethylamino)ethoxy)pyridin-2-yl)-3-(((7-(pyridin-4-yl)-2,3-dihydrofuro[3,2-c]pyridin-4-yl)amino)methyl)benzamide] |  |  | *** (ratio≥10) | ≤ 3 nM | ≤ 3 nM
CNC(=O)c1cccc(CNc2ncc(-c3ccncc3)c3c2OCC3)c1 [Example C, N-methyl-3-(((4-(pyridin-4-yl)-2,3-dihydrofuro[2,3-c]pyridin-7-yl)amino)methyl)benzamide, reference compound] |  |  | *** (ratio≥10) | > 30 nM | > 30 nM
O=C(NCc1ccon1)c1cccc(CNc2ncc(-c3ccncc3)c3c2CCO3)c1 [Example 6, N-(isoxazol-3-ylmethyl)-3-(((7-(pyridin-4-yl)-2,3-dihydrofuro[3,2-c]pyridin-4-yl)amino)methyl)benzamide] |  |  | *** (ratio≥10) | 3 to 30 nM | ≤ 3 nM
CNC(=O)c1cccc(CNc2ncc(-c3ccnc(N)c3F)c3c2CCO3)c1 [Example 46, 3-(((7-(2-Amino-3-fluoropyridin-4-yl)-2,3-dihydrofuro[3,2-c]pyridin-4-yl)amino)methyl)-N-methylbenzamide] |  |  | *** (ratio≥10) | 3 to 30 nM | 3 to 30 nM
CC(C)(C)N1CC(CNC(=O)c2cccc(CNc3ncc(-c4ccncc4)c4c3CCO4)c2)CC1=O (stereo not drawn) [Example 15, N-((1-(tert-butyl)-5-oxopyrrolidin-3-yl)methyl)-3-(((7-(pyridin-4-yl)-2,3-dihydrofuro[3,2-c]pyridin-4-yl)amino)methyl)benzamide] |  |  | *** (ratio≥10) | ≤ 3 nM | ≤ 3 nM
CNC(=O)c1cccc(CNc2ncc(-c3cc[nH]c(=O)c3)c3c2CCO3)c1 [Example B, N-methyl-3-(((7-(2-oxo-1,2-dihydropyridin-4-yl)-2,3-dihydrofuro[3,2-c]pyridin-4-yl)amino)methyl)benzamide, reference compound] |  |  | *** (ratio≥10) | > 30 nM | > 30 nM
O=C(Nc1cccnn1)c1cccc(CNc2ncc(-c3ccncc3)c3c2CCO3)c1 [Example 17, N-(pyridazin-3-yl)-3-(((7-(pyridin-4-yl)-2,3-dihydrofuro[3,2-c]pyridin-4-yl)amino)methyl)benzamide] |  |  | *** (ratio≥10) | 3 to 30 nM | 3 to 30 nM

Reference: US12534474B2, “Dihydrofuropyridine derivatives as rho-kinase inhibitors” (CHIESI FARMACEUTICI S.P.A., priority 2020, dated 2026)
